From the supplement of paper PMC5908809

Key:
[1] = test system: normal primary NK cells, pool 1 (3 donors) (IL-2 2.5 ng/mL); test: drug sensitivity score (DSS) (DSS units); higher = more sensitive; extreme values may be limits of the assay; details: 72 h
KAI3 (IL-2 2.5 ng/mL) [2] = test: as above; details: 72 h
IMC-1 (IL-2 20 ng/mL) [3] = test: as above; details: 72 h
SNK-6 (IL-2 2.5 ng/mL) [4] = test: as above; details: 72 h
[5] = test system: normal primary NK cells, pool 1 (3 donors), resting (IL-2 0 ng/mL); test: as above; details: 72 h
NK-YS (IL-2 2.5 ng/mL) [6] = test: as above; details: 72 h
NKL (IL-2 2.5 ng/mL) [7] = test: as above; details: 72 h
[8] = test system: normal primary NK cells, pool 3 (3 donors) (IL-2 2.5 ng/mL); test: as above; details: 72 h
YT (IL-2 2.5 ng/mL) [9] = test: as above; details: 72 h
DERL-7 (IL-2 2.5 ng/mL) [10] = test: as above; details: 72 h
KHYG-1 (IL-2 2.5 ng/mL) [11] = test: as above; details: 72 h
NK-92 (IL-2 2.5 ng/mL) [12] = test: as above; details: 72 h
[13] = test system: normal primary NK cells, pool 2 (3 donors) (IL-2 2.5 ng/mL); test: as above; details: 72 h
[14] = test system: normal NK cells expanded with K562-aAPC; test: percent inhibition of viability; higher = more inhibition; details: 72 h, IL-2 2.5 ng/mL
Protocol: (§1)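 Drug sensitivity and resistance testing on K562-aAPC-expanded normal NK cells: 5 concentrations (10-fold steps over a 10,000-fold range), 72 h at 37 °C, viability by CellTiter-Glo normalised to DMSO and benzethonium chloride controls; DSS from the fitted curve.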

[15] = test system: normal NK cells expanded with K562-aAPC; test: drug sensitivity score (DSS) (DSS units); higher = more sensitive; extreme values may be limits of the assay; details: 72 h; IL-2 2.5 ng/mL
Protocol: as §1

[16] = test system: normal primary NK cells, pool 1 (3 donors) (IL-2 2.5 ng/mL); test: percent inhibition of viability; higher = more inhibition; details: 72 h
KAI3 (IL-2 2.5 ng/mL) [17] = test: as above; details: 72 h
IMC-1 (IL-2 20 ng/mL) [18] = test: as above; details: 72 h
SNK-6 (IL-2 2.5 ng/mL) [19] = test: as above; details: 72 h
[20] = test system: normal primary NK cells, pool 1 (3 donors), resting (IL-2 0 ng/mL); test: as above; details: 72 h
NK-YS (IL-2 2.5 ng/mL) [21] = test: as above; details: 72 h
NKL (IL-2 2.5 ng/mL) [22] = test: as above; details: 72 h
[23] = test system: normal primary NK cells, pool 3 (3 donors) (IL-2 2.5 ng/mL); test: as above; details: 72 h
YT (IL-2 2.5 ng/mL) [24] = test: as above; details: 72 h
DERL-7 (IL-2 2.5 ng/mL) [25] = test: as above; details: 72 h
KHYG-1 (IL-2 2.5 ng/mL) [26] = test: as above; details: 72 h
NK-92 (IL-2 2.5 ng/mL) [27] = test: as above; details: 72 h
[28] = test system: normal primary NK cells, pool 2 (3 donors) (IL-2 2.5 ng/mL); test: as above; details: 72 h

CS(=O)(=O)CCNCc1ccc(-c2ccc3ncnc(Nc4ccc(OCc5cccc(F)c5)c(Cl)c4)c3c2)o1 [Lapatinib] (max concentration tested 1000 nM)
Details | drug sensitivity score
DERL-7 (IL-2 2.5 ng/mL) [10] | 0
IMC-1 (IL-2 20 ng/mL) [3] | 0
KAI3 (IL-2 2.5 ng/mL) [2] | 0.01
KHYG-1 (IL-2 2.5 ng/mL) [11] | 0
NK-92 (IL-2 2.5 ng/mL) [12] | 6.01
NK-YS (IL-2 2.5 ng/mL) [6] | 0
NKL (IL-2 2.5 ng/mL) [7] | 0.4
SNK-6 (IL-2 2.5 ng/mL) [4] | 0
YT (IL-2 2.5 ng/mL) [9] | 0.63
[1] | 1.89
[5] | 2.38
[8] | 0
[13] | 0
[15] | 0

percent inhibition of viability [%]
Details | 0.1 nM | 1 nM | 10 nM | 100 nM | 1000 nM
DERL-7 (IL-2 2.5 ng/mL) [25] | 4.2 | 1.17 | 2.53 | -0.89 | 9.64
IMC-1 (IL-2 20 ng/mL) [18] | -4.47 | -0.19 | -1 | 2.17 | 9.49
KAI3 (IL-2 2.5 ng/mL) [17] | -4.84 | -7.01 | -5.48 | -1.85 | 11.8
KHYG-1 (IL-2 2.5 ng/mL) [26] | -0.63 | -4.12 | -1.74 | 0.27 | 9.49
NK-92 (IL-2 2.5 ng/mL) [27] | -9.88 | -2.81 | 5.1 | 30.6 | 28.1
NK-YS (IL-2 2.5 ng/mL) [21] | -7.32 | -8.47 | -3.59 | -5.11 | 5.83
NKL (IL-2 2.5 ng/mL) [22] | -3.26 | -0.98 | 3.19 | 8.28 | 14.2
SNK-6 (IL-2 2.5 ng/mL) [19] | -20.3 | -7.47 | -17 | -15.2 | -16.8
YT (IL-2 2.5 ng/mL) [24] | -1.2 | -2.12 | -1.08 | 6.88 | 14.2
[14] | -5.72 | -9.28 | -7.55 | -4.36 | -0.7
[16] | -9.91 | 11.7 | 10.2 | 12.6 | 4.9
[20] | -12 | 4 | -0.24 | 6.97 | 30.1
[23] | -12.2 | 9.92 | 7.91 | -3.46 | -0.3
[28] | -7.46 | 8.95 | 4.77 | 1.81 | 4

C[C@@H]1C=C2C(=O)O[C@@H]3CC[C@H](C1)[C@]23O [Galiellalactone] (max concentration tested 25000 nM)
Details | drug sensitivity score
DERL-7 (IL-2 2.5 ng/mL) [10] | 10.3
IMC-1 (IL-2 20 ng/mL) [3] | 1.6
KAI3 (IL-2 2.5 ng/mL) [2] | 9.99
KHYG-1 (IL-2 2.5 ng/mL) [11] | 6.22
NK-92 (IL-2 2.5 ng/mL) [12] | 7.95
NK-YS (IL-2 2.5 ng/mL) [6] | 6.25
NKL (IL-2 2.5 ng/mL) [7] | 2.18
SNK-6 (IL-2 2.5 ng/mL) [4] | 7.97
YT (IL-2 2.5 ng/mL) [9] | 4.18
[1] | 7.72
[5] | 8.44
[8] | 5.23
[13] | 6.94
[15] | 6.5

percent inhibition of viability [%]
Details | 2.5 nM | 25 nM | 250 nM | 2500 nM | 25000 nM
DERL-7 (IL-2 2.5 ng/mL) [25] | -3.32 | -2.23 | 6.78 | 39.3 | 101
IMC-1 (IL-2 20 ng/mL) [18] | -4.12 | -5.59 | -4.92 | -11.8 | 42.7
KAI3 (IL-2 2.5 ng/mL) [17] | 0.86 | -9.38 | 4.52 | 34.1 | 99.1
KHYG-1 (IL-2 2.5 ng/mL) [26] | -7.95 | -9.83 | -6.41 | 10.7 | 80.1
NK-92 (IL-2 2.5 ng/mL) [27] | -18 | -14.4 | -12.5 | 13.8 | 106
NK-YS (IL-2 2.5 ng/mL) [21] | 0.84 | -3.46 | 3.95 | 18.4 | 64.7
NKL (IL-2 2.5 ng/mL) [22] | -8.21 | -5.52 | -6.69 | -5.94 | 49.3
SNK-6 (IL-2 2.5 ng/mL) [19] | -13.8 | -22 | -28.1 | 20.7 | 86
YT (IL-2 2.5 ng/mL) [24] | -7.44 | -15.7 | -6.7 | -3.78 | 81
[14] | -7.73 | -4.65 | -5.56 | 8.69 | 91.9
[16] | -8.48 | 6.95 | 7.01 | 15.2 | 93.7
[20] | -12.7 | 5.72 | 9.42 | 27.4 | 89.3
[23] | -11.4 | 1.14 | -3.83 | 2.67 | 87.7
[28] | -9.13 | 7.06 | 4.86 | 10.7 | 93.2

CCOC(=O)CCNc1cc(N2CCc3ccccc3CC2)nc(-c2ccccn2)n1 [GSK-J4] (max concentration tested 100000 nM)
Details | drug sensitivity score
DERL-7 (IL-2 2.5 ng/mL) [10] | 18.9
IMC-1 (IL-2 20 ng/mL) [3] | 22.9
KAI3 (IL-2 2.5 ng/mL) [2] | 17.5
KHYG-1 (IL-2 2.5 ng/mL) [11] | 21.2
NK-92 (IL-2 2.5 ng/mL) [12] | 25.2
NK-YS (IL-2 2.5 ng/mL) [6] | 17.6
NKL (IL-2 2.5 ng/mL) [7] | 17.6
SNK-6 (IL-2 2.5 ng/mL) [4] | 18.1
YT (IL-2 2.5 ng/mL) [9] | 18.9
[1] | 20.2
[5] | 22.6
[8] | 19.8
[13] | 17.5
[15] | 16.9

percent inhibition of viability [%]
Details | 10 nM | 100 nM | 1000 nM | 10000 nM | 100000 nM
DERL-7 (IL-2 2.5 ng/mL) [25] | -0.14 | 7.18 | 14.4 | 93.4 | 99.4
IMC-1 (IL-2 20 ng/mL) [18] | -5.61 | -2.96 | 39.7 | 97 | 100
KAI3 (IL-2 2.5 ng/mL) [17] | -4.58 | 1.93 | 2.78 | 94.3 | 98.9
KHYG-1 (IL-2 2.5 ng/mL) [26] | -1.03 | -1.4 | 20 | 101 | 99.2
NK-92 (IL-2 2.5 ng/mL) [27] | -9.95 | -0.92 | 60.9 | 104 | 98.1
NK-YS (IL-2 2.5 ng/mL) [21] | -1.22 | -3.86 | -1.41 | 98.6 | 99.6
NKL (IL-2 2.5 ng/mL) [22] | -0.55 | -7.46 | -8.29 | 104 | 98.2
SNK-6 (IL-2 2.5 ng/mL) [19] | -0.34 | 7.09 | 6.11 | 94.8 | 99.7
YT (IL-2 2.5 ng/mL) [24] | -1.98 | -3.85 | 4.52 | 104 | 99.3
[14] | -1.25 | -3.45 | -1.63 | 93.7 | 99.5
[16] | -2.65 | -4.87 | 13.6 | 97.9 | 99.8
[20] | -7.04 | -16 | 34.7 | 96.2 | 99
[23] | -2.08 | -5.17 | 19.9 | 94 | 99.5
[28] | -5.62 | -2.09 | 5.39 | 92.4 | 98.7
